{"source": "patent US10945980B2", "about": "“Treatment for myopia” (The University of Newcastle, priority 2016, dated 2021)", "key": {"[1]": {"system": "guinea pig eyes not form deprived", "assay": "Intravitreal L-arginine in eyes not form deprived (control groups of Example 2)", "type": "in vivo, guinea pig (Cavia porcellus)", "details": "2.2 mM L-arginine vs vehicle, no FD", "excerpt": "Animals were assigned to one of seven treatment groups (Table 1). From seven days of age, five of these groups were form deprived in the right eye for 3 days with a diffuser (two groups wore no diffusers and served as controls for form deprived animals). Six groups of animals were intravitreally injected with either L-arginine or physiological saline once per day, just before lights came on at 10 am. One group wore diffusers, but received no injection as a control. At ten days of age, cycloplegia was induced in all animals and refractive error and ocular components were measured. Two retinas, one a saline control and another that had been injected with the highest dose of L-arginine, were analysed by histochemistry for morphological markers of L-arginine induced toxicity.\nTo establish the size of the guinea pig vitreous, and thus the molarity of the substrate within the eye, ten vitreous chambers were extracted from ten eyes. The volume of the vitreous was 125 μl. Based on this, three drug doses of L-arginine were employed: low (0.4 mM), medium (2.2 mM) and high (non-toxic: 9.3 mM) (See Table 1). […]\nCycloplegia was induced as described in Example 1, and refractive error subsequently measured as described in Example 1.\nOcular length and axial components were also determined as described in Example 1. […]"}, "nNOS": {"system": "nNOS", "assay": "nNOS immunohistochemistry of retinal whole mounts 3 hours after intravitreal injection", "type": "in vivo, guinea pig (Cavia porcellus)", "method": "Two experimental protocols were used. In Experiment 1, young guinea pigs were randomly divided into three drug treatment groups: no injection (n=14), vehicle (n=14) and 0.2 mM L-arginine (n=16). Animals in the latter two groups received a daily 10 μl intravitreal injection in one eye at 7, 8 and 9 days of age (Table 2). […] The fellow eye was untreated. At 10 days of age, the −6D lens was removed, animals were cyclopleged and refractive error was measured in both eyes. In Experiment 2, sixteen guinea pigs received an intravitreal injection of either vehicle (n=8) or 0.2 mM L-arginine (n=8) into their untreated eye at 16 days of age (Table 2). Injections were made 1 hour after the beginning of their 12 hr light cycle. 3 hours after injection, light adapted animals were euthanized, and the injected eye removed and processed using immunohistochemistry.\nTo make the L-arginine (LA), 217.75 mg of LA (Sigma, A5006) was added to 10 ml of isotonic saline (Pfizer) to create 125 mM fresh stock each day. Hydrochloric acid was used to lower the stock to a pH of 7.4. The stock was diluted with isotonic saline to produce a final dose of 0.185 mM of LA (˜0.2 mM) at the level of the retina based on a vitreous volume of 125 μl and an injection volume of 10 μl. Vehicle injections consisted of 10 μl of isotonic saline (pH 7.4).\nGuinea pigs were briefly anaesthetised with isoflurane in oxygen and intravitreal injections were made through the pars plana ˜1 mm posterior to the limbus at an angle of approximately 40° to avoid contact with the crystalline lens and retina. Drugs were delivered using a 0.3 ml syringe (Diabetic BD UltraFine II) with a 31 gauge needle. After the injection, antibiotic gel (Conoptal) was applied lightly to the cornea, and animals recovered rapidly in a warm darkened box.\nIn Experiment 2, three hours after their intravitreal injection, animals were anaesthetised with isoflurane in oxygen and then euthanized with an […] injection of sodium pentobarbitone (160 mg/kg; Lethabarb) into the heart. The eye that had received treatment was then enucleated. […]"}}}
{"molecule": "N=C(N)NCCC[C@H](N)C(=O)O", "note": "[L-arginine]", "values": [{"measurement": "difference in relative refractive error between the two groups that were not form deprived", "setting": "[1]; daily 10 μl intravitreal injection for 3 days, p=0.46", "value": "−0.2", "unit": "D"}, {"measurement": "difference in ocular length between groups not form deprived", "setting": "[1]; intravitreal, p=0.44", "value": 83, "unit": "μm"}, {"measurement": "density of NOS displaced amacrine cells (DACs) vs vehicle injected eyes", "setting": "nNOS; single intravitreal 0.2 mM L-arginine, 3 hours after injection, each eccentricity from the optic nerve, p<0.001", "value": "significantly higher density"}, {"measurement": "density of Type I amacrine cells expressing nNOS vs vehicle injected group", "setting": "nNOS; single intravitreal 0.2 mM L-arginine, 3 hours after injection, p<0.001", "value": "significantly higher density"}, {"measurement": "increase of expression of nNOS in the retina", "setting": "nNOS; single intravitreal injection of L-arginine (0.2 mM)", "value": "approximately 20%"}]}
